Structures are written as SMILES.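 Exposure lasted 48 hours, with cells grown in 96-well plates and compounds tested at five concentrations. GI50 = concentration required for 50% inhibition of growth. TGI is the concentration that stops growth completely.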 Where only a bound is given, the exact number is not on record here.

Test systems include RPMI-8226 leukemia; SW-620 colon; HCT-15 colon; SNB-75 CNS; 786-0 renal; OVCAR-4 ovarian; K-562 leukemia; SR leukemia; NCI-H226 lung; DU-145 prostate.
What all share (experiment): NCI tumour cell line growth inhibition, 48 h

As to `CC1(Cl)C(=O)NC(=O)N(C2CC(N=[N+]=[N-])C(CO)O2)C1N=[N+]=[N-]` (configuration not stated), the TGI with RPMI-8226 leukemia, in the assay on SW-620 colon, in the assay with HCT-15 colon, in the assay with SNB-75 CNS, with 786-0 renal and in the assay on OVCAR-4 ovarian was over 100 µM in each case. In addition, the TGI in the assay with K-562 leukemia is over 100 µM.
For `O=C1C=CC(=Nc2ccc3c(c2)C(Br)c2ccccc2-3)O1` (configuration not stated), the TGI in the assay on RPMI-8226 leukemia, in the assay on SW-620 colon, in the assay on HCT-15 colon, in the assay with SNB-75 CNS, in the assay on 786-0 renal and in the assay on K-562 leukemia was over 100 µM throughout. Also, the TGI in the assay with SR leukemia was over 100 µM.
For the molecule `CC(=O)Nc1ccccc1Sc1ccccc1`, the TGI in the assay on RPMI-8226 leukemia, in the assay on SW-620 colon, in the assay on HCT-15 colon, in the assay with SNB-75 CNS, in the assay on 786-0 renal and in the assay on NCI-H226 lung was over 100 µM throughout. The TGI in the assay on OVCAR-4 ovarian and in the assay on K-562 leukemia was over 100 µM in each case.
Regarding `N#CC(C(=N/O)/C(=N/O)C(C#N)c1ccc(Cl)cc1)c1ccc(Cl)cc1` (configuration not stated), the TGI in the assay on RPMI-8226 leukemia, in the assay on SW-620 colon, with HCT-15 colon, in the assay with SNB-75 CNS, in the assay on 786-0 renal and in the assay with NCI-H226 lung was over 100 µM throughout. This molecule also displayed a TGI with OVCAR-4 ovarian of over 100 µM.
Turning to `CC[CH2][Pb]([CH2]CC)([CH2]CC)[O]C(=O)C(F)(F)F`, the GI50 with RPMI-8226 leukemia is 0.0627 µM; in the assay with SW-620 colon, 0.0786 µM; in the assay with HCT-15 colon, 0.124 µM; with SNB-75 CNS, 0.0679 µM; in the assay with DU-145 prostate, 0.188 µM; in the assay with 786-0 renal it was 0.165 µM. Besides, the values for the GI50 in the assay on OVCAR-4 ovarian and in the assay on K-562 leukemia were 0.0385 µM and 0.0918 µM, respectively. Further, the TGI was determined as 0.403 µM in the assay on RPMI-8226 leukemia; 0.253 µM in the assay with SW-620 colon; 0.587 µM with HCT-15 colon; 0.377 µM in the assay on SNB-75 CNS; 0.516 µM with DU-145 prostate; 0.376 µM in the assay on 786-0 renal. In addition, the TGI came to 0.178 µM with OVCAR-4 ovarian and 0.552 µM in the assay with K-562 leukemia.
Turning to `O=C1OCc2c1cc1ccc(O)c(OC3OC(CO)C(O)C(O)C3O)c1c2-c1ccc2c(c1)OCO2` (configuration not stated), the GI50 in the assay on RPMI-8226 leukemia is 34.6 µM; with SNB-75 CNS, 55.2 µM; in the assay on NCI-H226 lung it was 48.4 µM; in the assay on OVCAR-4 ovarian, 56.2 µM; with K-562 leukemia, 39.5 µM. The TGI with RPMI-8226 leukemia, in the assay on SW-620 colon, with HCT-15 colon, with SNB-75 CNS, with 786-0 renal and with NCI-H226 lung was over 100 µM throughout. For the same molecule, the TGI with OVCAR-4 ovarian and in the assay on K-562 leukemia was over 100 µM in each case.
In the case of `C=C(CN1CCc2ccccc2C1)c1ccc(C(=O)Nc2cnccn2)cc1`, the GI50 with RPMI-8226 leukemia was 3.35 µM; in the assay on SW-620 colon, 42.3 µM; with HCT-15 colon, 28.8 µM; in the assay with SNB-75 CNS, 16.7 µM; in the assay on DU-145 prostate it was 30.1 µM; with 786-0 renal, 25.4 µM. Further, the results for the GI50 in the assay with NCI-H226 lung, in the assay on OVCAR-4 ovarian and with K-562 leukemia were over 100 µM, 99.4 µM and 3.17 µM, respectively. Also, the TGI is 10.3 µM in the assay with RPMI-8226 leukemia; over 100 µM with SW-620 colon; over 100 µM in the assay with HCT-15 colon; 61.2 µM in the assay with SNB-75 CNS; 89.7 µM with DU-145 prostate; over 100 µM in the assay on 786-0 renal. The TGI with NCI-H226 lung was over 100 µM; with OVCAR-4 ovarian it was over 100 µM; in the assay on K-562 leukemia, 14.7 µM.
`COc1ccccc1C1C(C(=O)Nc2ccccc2)=C(C)NC(C)=C1C(=O)Nc1ccccc1`: the TGI in the assay with RPMI-8226 leukemia, in the assay on SW-620 colon, in the assay with HCT-15 colon, with SNB-75 CNS, in the assay on 786-0 renal and in the assay on NCI-H226 lung was over 100 µM throughout. For the same molecule, the TGI in the assay with OVCAR-4 ovarian and in the assay with K-562 leukemia was over 100 µM throughout.
`COC(=O)C1=C(C(=O)OC)C2C=CC1C1C(Cl)=C(Cl)C21` (configuration not stated): the TGI in the assay with RPMI-8226 leukemia, in the assay with SW-620 colon, with HCT-15 colon, with SNB-75 CNS, in the assay on 786-0 renal and with OVCAR-4 ovarian was over 100 µM throughout. This molecule also yielded a TGI in the assay with K-562 leukemia of over 100 µM.
`CC1=C(C(=O)Nc2ccc([N+](=O)[O-])cc2)C(c2ccc(N(C)C)cc2)C(C(=O)Nc2ccc([N+](=O)[O-])cc2)=C(C)N1`: the TGI in the assay with RPMI-8226 leukemia amounted to 43.2 µM; in the assay on SW-620 colon, 69.8 µM; with SNB-75 CNS, 59.6 µM; in the assay on 786-0 renal, 57.6 µM; in the assay on NCI-H226 lung, 42.3 µM; with OVCAR-4 ovarian, 89.5 µM. In the assay on K-562 leukemia, this molecule registered a TGI of 37.6 µM.
Turning to `COc1ccc(OC)c(NC(=O)C(=O)C(C(C)=O)c2nc3ccc(Cl)cc3[nH]c2=O)c1` (configuration not stated), the TGI in the assay on RPMI-8226 leukemia, in the assay with SW-620 colon, with HCT-15 colon, with SNB-75 CNS, with 786-0 renal and with NCI-H226 lung was over 50 µM in each case. The TGI in the assay on OVCAR-4 ovarian and in the assay on K-562 leukemia was over 50 µM in each case.
In the case of `OCc1ccc2[n+](c1)CCC1c3ccccc3NC21` (configuration not stated), the TGI in the assay on RPMI-8226 leukemia, in the assay with SW-620 colon, in the assay with HCT-15 colon, in the assay with 786-0 renal, in the assay with NCI-H226 lung and in the assay with K-562 leukemia was over 300 µM each time. The same molecule showed a TGI with SR leukemia of over 300 µM.
Take `O=C1NNC=Nc2ccc(cc2)S(=O)(=O)c2ccc(cc2)N=CNNC1=O`: the TGI in the assay with SW-620 colon, in the assay with HCT-15 colon, in the assay with DU-145 prostate, in the assay with 786-0 renal, in the assay with NCI-H226 lung and with OVCAR-4 ovarian was over 100 µM in each case. In the assay on K-562 leukemia, this molecule yielded a TGI of over 100 µM.
Consider `Clc1ccc(C2N3CCCCC3[C@@H]3c4[nH]c5ccccc5c4CCN23)cc1` (some centres not stated), for which the TGI with RPMI-8226 leukemia, in the assay with SW-620 colon, in the assay with HCT-15 colon, in the assay on SNB-75 CNS, in the assay with 786-0 renal and in the assay on OVCAR-4 ovarian was over 100 µM throughout. In addition, the TGI in the assay with K-562 leukemia was over 100 µM.

These data come from PubChem BioAssay (NCI).
